IC50 data for 18 compounds are collected here from publication PMC9645382 (Drug development research, 2019).

For orientation: IC50 means the concentration needed to halve the response being measured. Low readings indicate greater potency in that assay, high ones weaker potency in that assay.

For this assay, the target named is T1, human neutrophil elastase (HNE) (Homo sapiens, UniProt P08246).
T1 sequence (P08246 30-267): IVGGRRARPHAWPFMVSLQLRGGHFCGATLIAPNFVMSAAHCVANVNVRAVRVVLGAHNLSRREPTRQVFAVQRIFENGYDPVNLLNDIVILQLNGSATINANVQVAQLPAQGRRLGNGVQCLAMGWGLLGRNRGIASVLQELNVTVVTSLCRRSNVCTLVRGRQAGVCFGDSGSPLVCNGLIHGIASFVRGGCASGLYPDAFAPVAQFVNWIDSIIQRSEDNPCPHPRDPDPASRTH
Kind of assay: HNE inhibition assay. It counts as biochemical.
Take `O=C(C1CC1)n1cc(-c2ccccc2)c(=O)o1` [Compound 3a, 2-(Cyclopropanecarbonyl)-4-phenylisoxazol-5(2H)-one]: the IC50 was found to be 0.016 ± 0.005 µM.

Take `Cc1ccc(-c2cn(C(=O)C3CC3)oc2=O)cc1` [Compound 3b, 2-(Cyclopropanecarbonyl)-4-(p-tolyl)isoxazol-5(2H)-one]: half-maximal inhibition (IC50) was put at 0.026 ± 0.004 µM.

The compound `Cc1cccc(-c2cn(C(=O)C3CC3)oc2=O)c1` [Compound 3c, 2-(Cyclopropanecarbonyl)-4-(m-tolyl)isoxazol-5(2H)-one] yielded an IC50 of 0.022 ± 0.005 µM.

On to `Cc1ccccc1-c1cn(C(=O)C2CC2)oc1=O` [Compound 3d, 2-(Cyclopropanecarbonyl)-4-(o-tolyl)isoxazol-5(2H)-one], for which the IC50 worked out at 0.039 ± 0.011 µM.

In turn, `O=C(C1CC1)n1cc(-c2ccc(Br)cc2)c(=O)o1` [Compound 3e, 4-(4-Bromophenyl)-2-(cyclopropanecarbonyl)isoxazol-5(2H)-one] gave an IC50 of 0.031 ± 0.003 µM.

On to `O=C(C1CC1)n1cc(-c2ccc(Cl)cc2)c(=O)o1` [Compound 3f, 4-(4-Chlorophenyl)-2-(cyclopropanecarbonyl)isoxazol-5(2H)-one], for which the IC50 came to 0.042 ± 0.008 µM.

In turn, `COc1ccc(-c2cn(C(=O)C3CC3)oc2=O)cc1` [Compound 3g, 2-(Cyclopropanecarbonyl)-4-(4-methoxyphenyl)isoxazol-5(2H)-one] showed a 50% inhibitory concentration (IC50) of 0.011 ± 0.003 µM.

`N#Cc1ccc(-c2cn(C(=O)C3CC3)oc2=O)cc1` [Compound 3h, 4-(2-(Cyclopropanecarbonyl)-5-oxo-2,5-dihydroisoxazol-4-yl)benzonitrile] yielded an IC50 of 0.018 ± 0.005 µM.

With `O=C(C1CC1)n1cc(-c2ccc(C(F)(F)F)cc2)c(=O)o1` [Compound 3i, 2-(Cyclopropanecarbonyl)-4-(4-(trifluoromethyl)phenyl)isoxazol-5(2H)-one], the half-maximal inhibitory concentration (IC50) stood at 0.033 ± 0.001 µM.

`Cc1cccc(C(=O)n2cc(-c3ccccc3)c(=O)o2)c1` [Compound 4a, 2-(3-Methylbenzoyl)-4-phenylisoxazol-5(2H)-one] returned an IC50 of 0.046 ± 0.012 µM.

In turn, `Cc1ccc(-c2cn(C(=O)c3cccc(C)c3)oc2=O)cc1` [Compound 4b, 2-(3-Methylbenzoyl)-4-(p-tolyl)isoxazol-5(2H)-one] registered an IC50 of 0.022 ± 0.007 µM.

Take `Cc1cccc(C(=O)n2cc(-c3cccc(C)c3)c(=O)o2)c1` [Compound 4c, 2-(3-Methylbenzoyl)-4-(m-tolyl)isoxazol-5(2H)-one]: 0.031 ± 0.003 µM corresponded to half-maximal inhibition (IC50).

`Cc1cccc(C(=O)n2cc(-c3ccccc3C)c(=O)o2)c1` [Compound 4d, 2-(3-Methylbenzoyl)-4-(o-tolyl)isoxazol-5(2H)-one] gave an IC50 of 0.028 ± 0.003 µM.

Take `Cc1cccc(C(=O)n2cc(-c3ccc(Br)cc3)c(=O)o2)c1` [Compound 4e, 4-(4-Bromophenyl)-2-(3-methylbenzoyl)isoxazol-5(2H)-one]: the IC50 amounted to 0.047 ± 0.007 µM.

Compound `Cc1cccc(C(=O)n2cc(-c3ccc(Cl)cc3)c(=O)o2)c1` [Compound 4f, 4-(4-Chlorophenyl)-2-(3-methylbenzoyl)isoxazol-5(2H)-one] displayed a concentration for half-maximal inhibition (IC50) of 0.025 ± 0.002 µM.

For the compound `COc1ccc(-c2cn(C(=O)c3cccc(C)c3)oc2=O)cc1` [Compound 4g, 4-(4-Methoxyphenyl)-2-(3-methylbenzoyl)isoxazol-5(2H)-one], it took 0.023 ± 0.007 µM to reach half-maximal inhibition (IC50).

As for `Cc1cccc(C(=O)n2cc(-c3ccc(C#N)cc3)c(=O)o2)c1` [Compound 4h, 4-(2-(3-Methylbenzoyl)-5-oxo-2,5-dihydroisoxazol-4-yl)benzonitrile], the IC50 was found to be 0.078 ± 0.002 µM.

Compound `Cc1cccc(C(=O)n2cc(-c3ccc(C(F)(F)F)cc3)c(=O)o2)c1` [Compound 4i, 2-(3-Methylbenzoyl)-4-(4-[trifluoromethyl]phenyl)isoxazol-5(2H)-one] gave an IC50 of 0.081 ± 0.028 µM.
